T/C data for 17 molecules are collected here from PubChem BioAssay AID328 (DTP/NCI, 2004).

Several values for one entry are separate records, joined by “and”; a condition that tells them apart may be missing. Equal entries are not always repeated. Inconclusive results and toxic doses are left out.

The test deals with BDF1 mice, P388 leukemia ip, median survival T/C. Description: NCI In Vivo Anticancer Drug Screen. Data for tumor model P388 Leukemia (intraperitoneal) in B6D2F1 (BDF1) mice. The note with it: endpoint: median survival time, higher = longer survival. Summed up:
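Survival ratio, drug arm over vehicle arm, in mice with a transplanted tumour.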

Setting [1] is: dose: 12.5 mg/kg/injection, schedule: Q01DX009 (ip), vehicle: saline.
Where [2] appears, read: dose: 25.0 mg/kg/injection, schedule: Q01DX009 (ip), vehicle: saline.
The mark [3] stands for this setting: dose: 50.0 mg/kg/injection, schedule: Q01DX009 (ip), vehicle: Klucel (hydroxypropylcellulose) (HPC).
Setting [4] is: dose: 50.0 mg/kg/injection, schedule: Q01DX009 (ip), vehicle: saline.
[5] abbreviates: dose: 100.0 mg/kg/injection, schedule: Q04DX003 (ip), vehicle: Klucel (hydroxypropylcellulose) (HPC).
Setting [6] is: dose: 200.0 mg/kg/injection, schedule: Q04DX003 (ip), vehicle: Klucel (hydroxypropylcellulose) (HPC).
The mark [7] stands for this setting: dose: 400.0 mg/kg/injection, schedule: Q04DX003 (ip), vehicle: Klucel (hydroxypropylcellulose) (HPC).
Setting [8] is: dose: 100.0 mg/kg/injection, schedule: Q01DX009 (ip), vehicle: Klucel (hydroxypropylcellulose) (HPC).
Where [9] appears, read: dose: 200.0 mg/kg/injection, schedule: Q01DX009 (ip), vehicle: Klucel (hydroxypropylcellulose) (HPC).
[10] abbreviates: dose: 400.0 mg/kg/injection, schedule: Q01DX009 (ip), vehicle: Klucel (hydroxypropylcellulose) (HPC).
Where [11] appears, read: dose: 12.5 mg/kg/injection, schedule: Q04DX003 (ip), vehicle: saline.
Setting [12] is: dose: 25.0 mg/kg/injection, schedule: Q04DX003 (ip), vehicle: saline.

As for `CO[C@H]1C[C@H](O[C@H]2CC[C@]3(C=O)[C@H]4CC[C@]5(C)[C@@H](C6=CC(=O)OC6)CC[C@]5(O)[C@@H]4CC[C@]3(O)C2)O[C@H](C)[C@H]1O`, the T/C was 95 % of control (dose: 0.62 mg/kg/injection, schedule: Q01DX010 (ip), vehicle: steriod suspending solution); 90 % of control (dose: 1.25 mg/kg/injection, schedule: Q01DX010 (ip), vehicle: steriod suspending solution); 95 % of control (dose: 2.5 mg/kg/injection, schedule: Q01DX010 (ip), vehicle: steriod suspending solution); 90 % of control (dose: 5.0 mg/kg/injection, schedule: Q01DX010 (ip), vehicle: steriod suspending solution).
Regarding `CN(C)C(=S)NN`, the T/C (dose: 0.25 mg/kg/injection, schedule: Q01DX009 (ip), vehicle: saline with Tween-80) was 90 % of control; the T/C (dose: 0.5 mg/kg/injection, schedule: Q01DX009 (ip), vehicle: saline with Tween-80) is 90 % of control; the T/C (dose: 0.78 mg/kg/injection, schedule: Q04DX003 (ip), vehicle: saline with Tween-80) is 100 % of control; the T/C (dose: 1.0 mg/kg/injection, schedule: Q01DX009 (ip), vehicle: saline with Tween-80) was 95 % of control; the T/C (dose: 1.56 mg/kg/injection, schedule: Q04DX003 (ip), vehicle: saline with Tween-80) is 105 % of control; the T/C (dose: 3.12 mg/kg/injection, schedule: Q04DX003 (ip), vehicle: saline with Tween-80) is 95 % of control and 105 % of control.
For the molecule `c1ccc2c(c1)CC1CCCCN1C2` (centres undefined), the T/C is 100 % of control (dose: 12.5 mg/kg/injection, schedule: Q01DX009 (ip), vehicle: Klucel (hydroxypropylcellulose) (HPC)); 100 % of control under setting [1]; 105 % of control (dose: 25.0 mg/kg/injection, schedule: Q01DX009 (ip), vehicle: Klucel (hydroxypropylcellulose) (HPC)); 90 % of control under setting [2]; 95 % of control (dose: 37.5 mg/kg/injection, schedule: Q04DX003 (ip), vehicle: saline); 100 % of control under setting [3]. For the same molecule, the T/C runs as follows: under setting [4], 110 % of control; (dose: 75.0 mg/kg/injection, schedule: Q04DX003 (ip), vehicle: saline) 86 % of control.
As to `CCCCN1C(=O)C/C(=C2\CC(=O)N(CCCC)C2=O)C1=O`, the T/C under setting [5] is 116 % of control, the T/C under setting [6] was 95 % of control and the T/C under setting [7] is 95 % of control.
Consider `CC(=O)OCC1OC(n2cc(C(F)(F)F)c(=O)[nH]c2=O)CC1OC(C)=O` (centres undefined), for which the T/C is 95 % of control (dose: 62.5 mg/kg/injection, schedule: Q01DX009 (ip), vehicle: Klucel (hydroxypropylcellulose) (HPC)); 100 % of control under setting [8]; 109 % of control (dose: 125.0 mg/kg/injection, schedule: Q01DX009 (ip), vehicle: Klucel (hydroxypropylcellulose) (HPC)); 100 % of control under setting [9]; 90 % of control (dose: 250.0 mg/kg/injection, schedule: Q01DX009 (ip), vehicle: Klucel (hydroxypropylcellulose) (HPC)); 105 % of control under setting [10]. The T/C (dose: 500.0 mg/kg/injection, schedule: Q01DX009 (ip), vehicle: Klucel (hydroxypropylcellulose) (HPC)) is 109 % of control.
For the molecule `CCCC(C(=O)c1ccc(OC)cc1)C(O)(C(F)(F)F)C(F)(F)F` (centres undefined), the T/C under setting [5] is 95 % of control, the T/C under setting [6] was 100 % of control and the T/C under setting [7] is 100 % of control.
On to `O=[N+]([O-])c1ccc(NCc2ccccc2)c2c1no[n+]2[O-]`, for which the T/C is 92 % of control (dose: 35.0 mg/kg/injection, schedule: Q01DX009 (ip), vehicle: saline with Tween-80); 91 % of control (dose: 70.0 mg/kg/injection, schedule: Q01DX009 (ip), vehicle: saline with Tween-80); 92 % of control (dose: 140.0 mg/kg/injection, schedule: Q01DX009 (ip), vehicle: saline with Tween-80).
On to `CC1(C)C2CC34CCCN3C(=O)C2(CC12Nc1ccccc1C2=O)NC4=O` (centres undefined), for which the T/C reads like this: under setting [4], 102 % of control; (dose: 100.0 mg/kg/injection, schedule: Q01DX009 (ip), vehicle: saline) 109 % of control; (dose: 200.0 mg/kg/injection, schedule: Q01DX009 (ip), vehicle: saline) 113 % of control.
On to `CC(C(=O)O)[Se](=O)O` (centres undefined), for which the T/C was 101 % of control under setting [11]; 101 % of control under setting [12]; 100 % of control (dose: 50.0 mg/kg/injection, schedule: Q04DX003 (ip), vehicle: saline).
Take `NS(=O)(=O)c1ccc(NC(=O)c2ccccc2C(=O)O)cc1`: the T/C reads like this: under setting [8], 95 % of control; under setting [9], 100 % of control; under setting [10], 105 % of control.
`CCN(CC)c1ccc(N=Cc2ccccc2S(=O)(=O)O)cc1`: the T/C (dose: 6.25 mg/kg/injection, schedule: Q01DX009 (ip), vehicle: saline) was 100 % of control; the T/C (dose: 6.25 mg/kg/injection, schedule: Q04DX003 (ip), vehicle: saline) was 104 % of control; the T/C under setting [1] is 100 % of control; the T/C under setting [11] was 109 % of control; the T/C under setting [2] is 100 % of control; the T/C under setting [12] is 104 % of control.
Regarding `COC(=O)CCC(=O)Nc1ccc(C(=O)CBr)cc1`, the T/C by setting is: (dose: 25.0 mg/kg/injection, schedule: Q04DX003 (ip), vehicle: Klucel (hydroxypropylcellulose) (HPC)) 107 % of control; (dose: 50.0 mg/kg/injection, schedule: Q04DX003 (ip), vehicle: Klucel (hydroxypropylcellulose) (HPC)) 97 % of control.
For the molecule `CC(C(Cl)c1ccccc1)S(=O)c1ccccc1` (centres undefined), the T/C is 108 % of control (dose: 50.0 mg/kg/injection, schedule: Q01DX009 (ip), vehicle: saline with Tween-80); 103 % of control (dose: 100.0 mg/kg/injection, schedule: Q01DX009 (ip), vehicle: saline with Tween-80); 105 % of control (dose: 200.0 mg/kg/injection, schedule: Q01DX009 (ip), vehicle: saline with Tween-80).
For the molecule `C=C(C)C12OC3(c4ccccc4)OC1C1C4OC4(CO)C(O)C4(O)C(=O)C(C)=CC4C1(O3)C(C)C2OC(=O)/C=C/c1ccccc1` (centres undefined), the T/C reads like this: (dose: 6.3 micrograms/kg/injection, schedule: Q## X009 (ip), vehicle: saline + alcohol) 114 % of control; (dose: 12.5 micrograms/kg/injection, schedule: Q## X009 (ip), vehicle: saline + alcohol) 110 % of control; (dose: 25.0 micrograms/kg/injection, schedule: Q## X009 (ip), vehicle: saline + alcohol) 118 % of control; (dose: 50.0 micrograms/kg/injection, schedule: Q## X009 (ip), vehicle: saline + alcohol) 109 % of control; (dose: 100.0 micrograms/kg/injection, schedule: Q## X009 (ip), vehicle: saline + alcohol) 159 % of control; (dose: 200.0 micrograms/kg/injection, schedule: Q## X009 (ip), vehicle: saline + alcohol) 173 % of control.
Turning to `O=C(Nc1ccc(C2=NCCN2)cc1)c1ccc(C(=O)Nc2ccc(C3=NCCN3)cc2)c(Cl)c1`, the T/C is 152 % of control (dose: 1.56 mg/kg/injection, schedule: Q01DX009 (ip), vehicle: saline with Tween-80); 161 % of control (dose: 3.13 mg/kg/injection, schedule: Q01DX009 (ip), vehicle: saline with Tween-80); 189 % of control and 204 % of control (dose: 6.25 mg/kg/injection, schedule: Q01DX009 (ip), vehicle: saline with Tween-80); 150 % of control and 160 % of control (dose: 8.0 mg/kg/injection, schedule: Q01DX010 (ip), vehicle: water); 154 % of control and 195 % of control (dose: 10.0 mg/kg/injection, schedule: Q01DX010 (ip), vehicle: water); 160 % of control and 170 % of control (dose: 12.0 mg/kg/injection, schedule: Q01DX010 (ip), vehicle: water). The T/C by setting is: (dose: 12.5 mg/kg/injection, schedule: Q01DX009 (ip), vehicle: saline with Tween-80) 250 % of control and 200 % of control and 211 % of control; (dose: 25.0 mg/kg/injection, schedule: Q01DX009 (ip), vehicle: saline with Tween-80) 270 % of control and 108 % of control.
Regarding `COC(=O)/C(C=Nc1ccccc1)=C(/C)O`, the T/C runs as follows: under setting [3], 112 % of control; under setting [8], 103 % of control; under setting [9], 108 % of control.
For the molecule `CC(O)(CCCCCCCC(C)(O)c1ccccc1)c1ccccc1` (centres undefined), the T/C runs as follows: (dose: 100.0 mg/kg/injection, schedule: Q01DX001 (ip), vehicle: saline with Tween-80) 100 % of control; (dose: 200.0 mg/kg/injection, schedule: Q01DX001 (ip), vehicle: saline with Tween-80) 100 % of control; (dose: 400.0 mg/kg/injection, schedule: Q01DX001 (ip), vehicle: saline with Tween-80) 100 % of control.
